Laboratory results published in ChEMBL document CHEMBL2380302, “Synthesis of 3-O-propargylated betulinic acid and its 1,2,3-triazoles as potential apoptotic agents” (Eur J Med Chem, 2013).

Experiments:
HEp-2 [1] = test: Cytotoxicity against human Hep2 cells at 30 uM after 48 hrs by SRB assay; type: functional; conditions: HEp-2, 48 h, read-out: GI
HL-60 [2] = test: Cytotoxicity against human HL60 cells at 50 uM after 48 hrs by SRB assay; type: functional; conditions: HL-60, 48 h, read-out: GI
PC-3 [3] = test: Cytotoxicity against human PC3 cells after 48 hrs by SRB assay; type: functional, cell-based; conditions: PC-3, 48 h
HCT-15 [4] = test: Cytotoxicity against human HCT15 cells after 48 hrs by SRB assay; type: functional, cell-based; conditions: HCT-15, 48 h
HL-60 [5] = test: Cytotoxicity against human HL60 cells after 48 hrs by SRB assay; type: functional, cell-based; conditions: HL-60, 48 h
PC-3 [6] = test: Cytotoxicity against human PC3 cells at 30 uM after 48 hrs by SRB assay; type: functional; conditions: PC-3, 48 h, read-out: GI
HCT-15 [7] = test: Cytotoxicity against human HCT15 cells at 50 uM after 48 hrs by SRB assay; type: functional; conditions: HCT-15, 48 h, read-out: GI
MCF7 [8] = test: Cytotoxicity against human MCF7 cells at 30 uM after 48 hrs by SRB assay; type: functional; conditions: MCF7, 48 h, read-out: GI
HCT-15 [9] = test: Cytotoxicity against human HCT15 cells at 10 uM after 48 hrs by SRB assay; type: functional; conditions: HCT-15, 48 h, read-out: GI
THP-1 [10] = test: Cytotoxicity against human THP1 cells at 10 uM after 48 hrs by SRB assay; type: functional; conditions: THP-1, 48 h, read-out: GI
DU-145 [11] = test: Cytotoxicity against human DU145 cells at 10 uM after 48 hrs by SRB assay; type: functional; conditions: DU-145, 48 h, read-out: GI
SF-295 [12] = test: Cytotoxicity against human SF295 cells after 48 hrs by SRB assay; type: functional, cell-based; conditions: SF-295, 48 h
A549 [13] = test: Cytotoxicity against human A549 cells after 48 hrs by SRB assay; type: functional, cell-based; conditions: A549, 48 h
HEp-2 [14] = test: Cytotoxicity against human Hep2 cells at 10 uM after 48 hrs by SRB assay; type: functional; conditions: HEp-2, 48 h, read-out: GI
A549 [15] = test: Cytotoxicity against human A549 cells at 50 uM after 48 hrs by SRB assay; type: functional; conditions: A549, 48 h, read-out: GI
HEp-2 [16] = test: Cytotoxicity against human Hep2 cells at 50 uM after 48 hrs by SRB assay; type: functional; conditions: HEp-2, 48 h, read-out: GI
THP-1 [17] = test: Cytotoxicity against human THP1 cells after 48 hrs by SRB assay; type: functional, cell-based; conditions: THP-1, 48 h
DU-145 [18] = test: Cytotoxicity against human DU145 cells at 50 uM after 48 hrs by SRB assay; type: functional; conditions: DU-145, 48 h, read-out: GI
MCF7 [19] = test: Cytotoxicity against human MCF7 cells at 10 uM after 48 hrs by SRB assay; type: functional; conditions: MCF7, 48 h, read-out: GI
HCT-15 [20] = test: Cytotoxicity against human HCT15 cells at 30 uM after 48 hrs by SRB assay; type: functional; conditions: HCT-15, 48 h, read-out: GI
HL-60 [21] = test: Cytotoxicity against human HL60 cells at 30 uM after 48 hrs by SRB assay; type: functional; conditions: HL-60, 48 h, read-out: GI
A549 [22] = test: Cytotoxicity against human A549 cells at 30 uM after 48 hrs by SRB assay; type: functional; conditions: A549, 48 h, read-out: GI
HL-60 [23] = test: Cytotoxicity against human HL60 cells at 10 uM after 48 hrs by SRB assay; type: functional; conditions: HL-60, 48 h, read-out: GI
SF-295 [24] = test: Cytotoxicity against human SF295 cells at 30 uM after 48 hrs by SRB assay; type: functional; conditions: SF-295, 48 h, read-out: GI
THP-1 [25] = test: Cytotoxicity against human THP1 cells at 50 uM after 48 hrs by SRB assay; type: functional; conditions: THP-1, 48 h, read-out: GI
DU-145 [26] = test: Cytotoxicity against human DU145 cells after 48 hrs by SRB assay; type: functional, cell-based; conditions: DU-145, 48 h
MCF7 [27] = test: Cytotoxicity against human MCF7 cells at 50 uM after 48 hrs by SRB assay; type: functional; conditions: MCF7, 48 h, read-out: GI
A549 [28] = test: Cytotoxicity against human A549 cells at 10 uM after 48 hrs by SRB assay; type: functional; conditions: A549, 48 h, read-out: GI
HEp-2 [29] = test: Cytotoxicity against human Hep2 cells after 48 hrs by SRB assay; type: functional, cell-based; conditions: HEp-2, 48 h
PC-3 [30] = test: Cytotoxicity against human PC3 cells at 50 uM after 48 hrs by SRB assay; type: functional; conditions: PC-3, 48 h, read-out: GI
THP-1 [31] = test: Cytotoxicity against human THP1 cells at 30 uM after 48 hrs by SRB assay; type: functional; conditions: THP-1, 48 h, read-out: GI
DU-145 [32] = test: Cytotoxicity against human DU145 cells at 30 uM after 48 hrs by SRB assay; type: functional; conditions: DU-145, 48 h, read-out: GI
MCF7 [33] = test: Cytotoxicity against human MCF7 cells after 48 hrs by SRB assay; type: functional, cell-based; conditions: MCF7, 48 h
PC-3 [34] = test: Cytotoxicity against human PC3 cells at 10 uM after 48 hrs by SRB assay; type: functional; conditions: PC-3, 48 h, read-out: GI
SF-295 [35] = test: Cytotoxicity against human SF295 cells at 10 uM after 48 hrs by SRB assay; type: functional; conditions: SF-295, 48 h, read-out: GI
SF-295 [36] = test: Cytotoxicity against human SF295 cells at 50 uM after 48 hrs by SRB assay; type: functional; conditions: SF-295, 48 h, read-out: GI

Structure (SMILES)	inhibition of growth at 30 µM (HEp-2 [1])	inhibition of growth at 50 µM (HL-60 [2])	IC50 (PC-3 [3])	IC50 (HCT-15 [4])	IC50 (HL-60 [5])	inhibition of growth at 30 µM (PC-3 [6])	inhibition of growth at 50 µM (HCT-15 [7])	inhibition of growth at 30 µM (MCF7 [8])	inhibition of growth at 10 µM (HCT-15 [9])	inhibition of growth at 10 µM (THP-1 [10])	inhibition of growth at 10 µM (DU-145 [11])	IC50 (SF-295 [12])	IC50 (A549 [13])	inhibition of growth at 10 µM (HEp-2 [14])	inhibition of growth at 50 µM (A549 [15])	inhibition of growth at 50 µM (HEp-2 [16])	IC50 (THP-1 [17])	inhibition of growth at 50 µM (DU-145 [18])	inhibition of growth at 10 µM (MCF7 [19])	inhibition of growth at 30 µM (HCT-15 [20])	also measured
C=C(C)[C@@H]1CC[C@]2(C(=O)O)CC[C@]3(C)[C@H](CC[C@@H]4[C@@]5(C)CC[C@H](OCc6cn(-c7cc(C)cc(O)c7)nn6)C(C)(C)[C@@H]5CC[C@]43C)[C@@H]12	25%	98%	13 µM	26 µM	14 µM	74%	66%	96%	28%	15%	10%	19 µM	26 µM	9%	71%	42%	18 µM	97%	70%	56%	inhibition of growth at 30 µM (HL-60 [21]): 90%; inhibition of growth at 30 µM (A549 [22]): 59%; inhibition of growth at 10 µM (HL-60 [23]): 24%; inhibition of growth at 30 µM (SF-295 [24]): 75%; inhibition of growth at 50 µM (THP-1 [25]): 99%; IC50 (DU-145 [26]): 28 µM; inhibition of growth at 50 µM (MCF7 [27]): 96%; inhibition of growth at 10 µM (A549 [28]): 23%; IC50 (HEp-2 [29]): > 50 µM; inhibition of growth at 50 µM (PC-3 [30]): 91%; inhibition of growth at 30 µM (THP-1 [31]): 85%; inhibition of growth at 30 µM (DU-145 [32]): 51%; IC50 (MCF7 [33]): 3.8 µM; inhibition of growth at 10 µM (PC-3 [34]): 47%; inhibition of growth at 10 µM (SF-295 [35]): 23%; inhibition of growth at 50 µM (SF-295 [36]): 90%
C=C(C)[C@@H]1CC[C@]2(C(=O)O)CC[C@]3(C)[C@H](CC[C@@H]4[C@@]5(C)CC[C@H](OCc6cn(-c7ccc([N+](=O)[O-])cc7)nn6)C(C)(C)[C@@H]5CC[C@]43C)[C@@H]12	54%	94%	13 µM	28 µM	4.5 µM	59%	65%	44%	36%	51%	43%	8 µM	15 µM	43%	62%	72%	9 µM	72%	20%	52%	inhibition of growth at 30 µM (HL-60 [21]): 78%; inhibition of growth at 30 µM (A549 [22]): 49%; inhibition of growth at 10 µM (HL-60 [23]): 63%; inhibition of growth at 30 µM (SF-295 [24]): 72%; inhibition of growth at 50 µM (THP-1 [25]): 93%; IC50 (DU-145 [26]): 24 µM; inhibition of growth at 50 µM (MCF7 [27]): 53%; inhibition of growth at 10 µM (A549 [28]): 28%; IC50 (HEp-2 [29]): 15 µM; inhibition of growth at 50 µM (PC-3 [30]): 74%; inhibition of growth at 30 µM (THP-1 [31]): 68%; inhibition of growth at 30 µM (DU-145 [32]): 54%; IC50 (MCF7 [33]): 38 µM; inhibition of growth at 10 µM (PC-3 [34]): 48%; inhibition of growth at 10 µM (SF-295 [35]): 52%; inhibition of growth at 50 µM (SF-295 [36]): 87%
